Measurements published in patent US20060025566A1, “Macrocyclic modulators of the ghrelin receptor” (Tranzyme Pharma Inc., priority 2003, published 2006).

Experiments:
[1] = tested on: gastric emptying in fasted rats; assay: Gastric emptying in fasted rats (phenol red methylcellulose meal); assay type: in vivo, rat
Protocol: To examine the effects of compounds of the invention in a model for gastroparesis, compounds were evaluated for possible effects on gastric emptying in fasted rats.
GHRP-6 and test samples were dissolved in vehicle of 9% HPBCD/0.9% NaCl. Immediately following oral administration of methylcellulose (2%) containing phenol red (0.05%) (2 mL/rat), test substances or vehicle (9% HPBCD/0.9% NaCl) were each administered intravenously (i.v.) at a dosing volume of 5 mL/kg.
Male Wistar rats were provided by LASCO (A Charles River Licensee Corporation, Taiwan). Space allocation for 6 animals was 45×23×15 cm. Animals were housed in APEC® cages and maintained in a controlled temperature (22° C.-24° C.) and humidity (60%-80%) environment with 12 h light, 12 h dark cycles for at least one week in the laboratory prior to being used. Free access to standard lab chow for rats (Lab Diet, Rodent Diet, PMI Nutrition International, USA) and tap water was granted. All aspects of this work including housing, experimentation and disposal of animals were performed in general accordance with the Guide for the Care and Use of Laboratory Animals (National Academy Press, Washington, D.C., 1996).
Test substances were each administered intravenously to a group of 5 O/N-fasted Wistar derived male rats weighing 200±20 g immediately after methylcellulose (2%) containing phenol red (0.05%) was administered orally at 2 mL/animal. […] Following protein precipitation by 20% trichloroacetic acid (0.5 mL) and re-alkalization of the supernatant with 0.1 N NaOH, total phenol red remaining in the stomach was determined by a colorimetric method at 560 nm. A 30 percent or more (≧30%) increase in gastric emptying, detected as the decrease in phenol red concentration in the stomach relative to the vehicle control group, is considered significant.
• 1. […] Total phenol red remaining in the stomach was quantified by a colorimetric method at 560 nm. • 5. A >30% increase in gastric emptying, detected based on the phenol red concentration in comparison to the control group, is considered significant. […]

morphine-treated rats = assay: Model of opioid-delayed gastric emptying and gastrointestinal transit (morphine) in rats; assay type: in vivo, rat; settings: 3 mg/kg s.c., FIG. 16A
Text: 7. The Effect of Compounds of the Invention on Gastric Emptying and Gastrointestinal Transit in a Model of Opioid-Delayed Gastric Emptying
Opioid analgesics, such as morphine, are well known to delay gastrointestinal transit which is an important side-effect for this class of drugs. The clinical term for this syndrome is opioid bowel dysfunction (OBD). Importantly, patients recovering from abdominal surgery experience post-operative ileus that is further exacerbated by concomitant opioid therapy for post-surgical pain.
• 1. […] Methods • 1. Rats (male, Sprague-Dawley, 250-300 g) are implanted with jugular vein catheters to accommodate dosing of test articles. • 2. Overnight-fasted rats are administered morphine (3 mg/kg s.c.). • 3. […] Radioactivity (^99mTc) in each tissue isolate is measured as a means of measuring the transit of the meal. Results

[2] = Pharmacokinetic analysis in rats (i.v., s.c., p.o.); assay type: in vivo; settings: rat, typical dose 2 mg/kg
Protocol: D. Pharmacokinetic Analysis of Representative Compounds of the Invention
Typical Dose • 1. Intravenous (i.v.): 2 mg/kg • 2. Subcutaneous (s.c): 2 mg/kg
Plasma Collection • 1. Same protocol for all dosing groups • 2.
Whole blood samples were chilled and immediately processed by centrifugation to obtain plasma.
Plasma samples were stored frozen (−70° C.) until analysis.

[3] = molecular target: T1, human growth hormone secretagogue receptor (hGHS-R1a) (Homo sapiens, UniProt Q92847); assay: Competitive radioligand binding assay (ghrelin receptor), [125I]-ghrelin displacement on GHS-R/HEK 293 membranes; settings: binding activity at the human ghrelin receptor, [125I]-ghrelin competition, GHS-R/HEK 293 membranes; read-out: Ki
T1 construct: purchased PerkinElmer BioSignal #RBHGHSM, lot#1887; host or cells: HEK-293, stably transfected (membranes)
T1 sequence (Q92847 whole entry): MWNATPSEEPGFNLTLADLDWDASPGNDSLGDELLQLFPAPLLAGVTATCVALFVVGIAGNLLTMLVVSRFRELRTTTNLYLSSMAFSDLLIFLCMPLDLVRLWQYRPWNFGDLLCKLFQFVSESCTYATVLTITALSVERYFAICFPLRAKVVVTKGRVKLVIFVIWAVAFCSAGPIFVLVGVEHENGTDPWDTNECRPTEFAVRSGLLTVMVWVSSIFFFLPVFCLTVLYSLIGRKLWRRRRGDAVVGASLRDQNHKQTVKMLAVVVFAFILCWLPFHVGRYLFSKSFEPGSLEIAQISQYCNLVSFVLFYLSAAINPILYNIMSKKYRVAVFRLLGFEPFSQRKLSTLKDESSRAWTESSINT

CCN(CC)CCNC(=O)c1cc(Cl)c(N)cc1OC [Metoclopramide, reference compound]
gastric emptying of a solid meal in naïve rat ([1]; i.v. immediately after meal, FIG. 14): significant gastric emptying

CN1CC[C@]23c4c5ccc(O)c4O[C@H]2[C@@H](O)C=C[C@H]3[C@H]1C5 [Morphine, morphine]
gastric emptying and intestinal transit (morphine-treated rats): significantly delayed gastric emptying and intestinal transit

CCC(C)C1NCCOc2ccccc2CCCNC(=O)C(Cc2ccc(Cl)cc2)NC(=O)C(C)N(C)C1=O (stereo not shown) [compound 25]
Clearance [2]: 67 mL/min/kg
Elimination (t1/2, min) [2]: 31 min
gastric emptying ([1]; fasted rats, 30 μg/kg): demonstrated gastric emptying
increase in gastric emptying relative to the vehicle control group ([1]; fasted rats, 100 μg/kg i.v.): 39%
Ki [3]: 0.1 to 10 nM
